From ChEMBL document CHEMBL1139682, “Synthesis and biological evaluation of technetium-99m-labeled deoxyglucose derivatives as imaging agents for tumor” (Bioorg Med Chem Lett, 2006)

Legend:
[1] = Biodistribution in lung of TA2 mouse bearing MA891 xenograft after 4 hrs; assay type: ADME, organism-based; details: read-out: Drug uptake
[2] = Biodistribution in tumor of TA2 mouse bearing MA891 xenograft after 4 hrs; assay type: ADME, organism-based; details: read-out: Drug uptake
[3] = Partition coefficient, log P of the compound; assay type: physicochemical; details: octanol/water
[4] = Biodistribution in intestine of TA2 mouse bearing MA891 xenograft after 30 mins; assay type: ADME, organism-based; details: read-out: Drug uptake
[5] = Biodistribution in spleen of TA2 mouse bearing MA891 xenograft after 30 mins; assay type: ADME, organism-based; details: read-out: Drug uptake
[6] = Ratio of uptake in tumor to muscle of TA2 mouse bearing MA891 xenograft after 2 hrs; assay type: ADME; details: in vivo
[7] = Biodistribution in muscle of TA2 mouse bearing MA891 xenograft after 2 hrs; assay type: ADME, organism-based, Muscle tissue; details: read-out: Drug uptake
[8] = Biodistribution in tumor of TA2 mouse bearing MA891 xenograft after 30 mins; assay type: ADME, organism-based; details: read-out: Drug uptake
[9] = Biodistribution in tumor of TA2 mouse bearing MA891 xenograft after 2 hrs; assay type: ADME, organism-based; details: read-out: Drug uptake
[10] = Biodistribution in blood of TA2 mouse bearing MA891 xenograft after 30 mins; assay type: ADME, organism-based; details: read-out: Drug uptake
[11] = Biodistribution in liver of TA2 mouse bearing MA891 xenograft after 4 hrs; assay type: ADME, organism-based; details: read-out: Drug uptake
[12] = Ratio of uptake in tumor to muscle of TA2 mouse bearing MA891 xenograft after 30 mins; assay type: ADME; details: in vivo, 0.5 h
[13] = Biodistribution in liver of TA2 mouse bearing MA891 xenograft after 30 mins; assay type: ADME, organism-based; details: read-out: Drug uptake
[14] = Ratio of uptake in tumor to blood of TA2 mouse bearing MA891 xenograft after 2 hrs; assay type: ADME
[15] = Biodistribution in muscle of TA2 mouse bearing MA891 xenograft after 30 mins; assay type: ADME, organism-based, Muscle tissue; details: read-out: Drug uptake
[16] = Biodistribution in brain of TA2 mouse bearing MA891 xenograft after 30 mins; assay type: ADME, organism-based; details: read-out: Drug uptake
[17] = Biodistribution in blood of TA2 mouse bearing MA891 xenograft after 2 hrs; assay type: ADME, organism-based; details: read-out: Drug uptake
[18] = Ratio of uptake in tumor to muscle of TA2 mouse bearing MA891 xenograft after 4 hrs; assay type: ADME; details: in vivo
[19] = Biodistribution in muscle of TA2 mouse bearing MA891 xenograft after 4 hrs; assay type: ADME, organism-based, Muscle tissue; details: read-out: Drug uptake
[20] = Biodistribution in heart of TA2 mouse bearing MA891 xenograft after 30 mins; assay type: ADME, organism-based; details: read-out: Drug uptake
[21] = Biodistribution in heart of TA2 mouse bearing MA891 xenograft after 2 hrs; assay type: ADME, organism-based; details: read-out: Drug uptake
[22] = Biodistribution in kidney of TA2 mouse bearing MA891 xenograft after 4 hrs; assay type: ADME, organism-based; details: read-out: Drug uptake
[23] = Biodistribution in heart of TA2 mouse bearing MA891 xenograft after 4 hrs; assay type: ADME, organism-based; details: read-out: Drug uptake
[24] = Biodistribution in lung of TA2 mouse bearing MA891 xenograft after 30 mins; assay type: ADME, organism-based; details: read-out: Drug uptake
[25] = Ratio of uptake in tumor to […] of TA2 mouse bearing MA891 xenograft after 30 mins; assay type: ADME; details: in vivo, 0.5 h
[26] = Biodistribution in intestine of TA2 mouse bearing MA891 xenograft after 2 hrs; assay type: ADME, organism-based; details: read-out: Drug uptake
[27] = Biodistribution in stomach of TA2 mouse bearing MA891 xenograft after 2 hrs; assay type: ADME, organism-based; details: read-out: Drug uptake
[28] = Ratio of uptake in tumor to […] of TA2 mouse bearing MA891 xenograft after 4 hrs; assay type: ADME; details: in vivo
[29] = Biodistribution in spleen of TA2 mouse bearing MA891 xenograft after 2 hrs; assay type: ADME, organism-based; details: read-out: Drug uptake
[30] = Biodistribution in spleen of TA2 mouse bearing MA891 xenograft after 4 hrs; assay type: ADME, organism-based; details: read-out: Drug uptake
[31] = Biodistribution in intestine of TA2 mouse bearing MA891 xenograft after 4 hrs; assay type: ADME, organism-based; details: read-out: Drug uptake
[32] = Biodistribution in blood of TA2 mouse bearing MA891 xenograft after 4 hrs; assay type: ADME, organism-based; details: read-out: Drug uptake
[33] = Biodistribution in lung of TA2 mouse bearing MA891 xenograft after 2 hrs; assay type: ADME, organism-based; details: read-out: Drug uptake
[34] = Biodistribution in brain of TA2 mouse bearing MA891 xenograft after 2 hrs; assay type: ADME, organism-based; details: read-out: Drug uptake
[35] = Biodistribution in brain of TA2 mouse bearing MA891 xenograft after 4 hrs; assay type: ADME, organism-based; details: read-out: Drug uptake
[36] = Biodistribution in liver of TA2 mouse bearing MA891 xenograft after 2 hrs; assay type: ADME, organism-based; details: read-out: Drug uptake
[37] = Biodistribution in stomach of TA2 mouse bearing MA891 xenograft after 4 hrs; assay type: ADME, organism-based; details: read-out: Drug uptake
[38] = Biodistribution in kidney of TA2 mouse bearing MA891 xenograft after 30 mins; assay type: ADME, organism-based; details: read-out: Drug uptake
[39] = Biodistribution in stomach of TA2 mouse bearing MA891 xenograft after 30 mins; assay type: ADME, organism-based; details: read-out: Drug uptake
[40] = Biodistribution in kidney of TA2 mouse bearing MA891 xenograft after 2 hrs; assay type: ADME, organism-based; details: read-out: Drug uptake

tissue uptake at 4 h [1]: 0.98 %ID/g
tissue uptake at 4 h [2]: 1.06 %ID/g
logP [3]: -2.92
tissue uptake at 0.5 h [4]: 2.24 %ID/g
tissue uptake at 0.5 h [5]: 1.81 %ID/g
Ratio [6]: 2.85
tissue uptake at 2 h [7]: 0.45 %ID/g
tissue uptake at 0.5 h [8]: 1.53 %ID/g
tissue uptake at 2 h [9]: 1.25 %ID/g
tissue uptake at 0.5 h [10]: 3.32 %ID/g
tissue uptake at 4 h [11]: 4.18 %ID/g
Ratio [12]: 3.2
tissue uptake at 0.5 h [13]: 5.9 %ID/g
Kp at 2 h [14]: 0.59
tissue uptake at 0.5 h [15]: 0.51 %ID/g
tissue uptake at 0.5 h [16]: 0.11 %ID/g
tissue uptake at 2 h [17]: 2.22 %ID/g
Ratio [18]: 3.29
tissue uptake at 4 h [19]: 0.33 %ID/g
tissue uptake at 0.5 h [20]: 0.9 %ID/g
tissue uptake at 2 h [21]: 0.57 %ID/g
tissue uptake at 4 h [22]: 13.2 %ID/g
tissue uptake at 4 h [23]: 0.38 %ID/g
tissue uptake at 0.5 h [24]: 2.73 %ID/g
Ratio [25]: 0.47
tissue uptake at 2 h [26]: 4.07 %ID/g
tissue uptake at 2 h [27]: 3.17 %ID/g
Ratio [28]: 0.82
tissue uptake at 2 h [29]: 1.36 %ID/g
tissue uptake at 4 h [30]: 1.6 %ID/g
tissue uptake at 4 h [31]: 1.29 %ID/g
tissue uptake at 4 h [32]: 1.29 %ID/g
tissue uptake at 2 h [33]: 1.48 %ID/g
tissue uptake at 2 h [34]: 0.07 %ID/g
tissue uptake at 4 h [35]: 0.04 %ID/g
tissue uptake at 2 h [36]: 4.75 %ID/g
tissue uptake at 4 h [37]: 1.41 %ID/g
tissue uptake at 0.5 h [38]: 8.8 %ID/g
tissue uptake at 0.5 h [39]: 3.69 %ID/g
tissue uptake at 2 h [40]: 10.8 %ID/g
Structure (SMILES): CSCC(=O)NC1[C@H](O)O[C@H](CO)[C@@H](O)[C@@H]1O (stereo not given in full)
